Consider 26 substances from US20230338337A1, “BIOMARKERS FOR CANCER THERAPY USING MDM2 ANTAGONISTS” (OTSUKA PHARMACEUTICAL CO., LTD., priority 2019, published 2023).

The target in test [1] is MDM2-p53 interaction (in vitro translated MDM2) (Homo sapiens (Human), UniProt Q00987). The experiment in a line: MDM2-p53 interaction 96-well plate binding assay (ELISA). Particulars: for MDM2 % inhibition at 0.0030: at 0.0030 μM; for MDM2 % inhibition at 0.0010: at 0.0010 μM.
For test [2], the system named is SJSA-1. Kind of test: Protocol B: CellTiter-Glo cell viability assay. Particulars: for IC50: read-out: SJSA1 IC50 (μM) (Protocol B); for SJSA1 (Protocol B) % inhibition at 10: at 10 μM. In general terms: In ATP-based viability assays light output follows the ATP content of the culture.

Where two headings read alike, the source gives them in different places.

MDM2-p53 interaction (in vitro translated MDM2), sequence (Q00987 whole entry): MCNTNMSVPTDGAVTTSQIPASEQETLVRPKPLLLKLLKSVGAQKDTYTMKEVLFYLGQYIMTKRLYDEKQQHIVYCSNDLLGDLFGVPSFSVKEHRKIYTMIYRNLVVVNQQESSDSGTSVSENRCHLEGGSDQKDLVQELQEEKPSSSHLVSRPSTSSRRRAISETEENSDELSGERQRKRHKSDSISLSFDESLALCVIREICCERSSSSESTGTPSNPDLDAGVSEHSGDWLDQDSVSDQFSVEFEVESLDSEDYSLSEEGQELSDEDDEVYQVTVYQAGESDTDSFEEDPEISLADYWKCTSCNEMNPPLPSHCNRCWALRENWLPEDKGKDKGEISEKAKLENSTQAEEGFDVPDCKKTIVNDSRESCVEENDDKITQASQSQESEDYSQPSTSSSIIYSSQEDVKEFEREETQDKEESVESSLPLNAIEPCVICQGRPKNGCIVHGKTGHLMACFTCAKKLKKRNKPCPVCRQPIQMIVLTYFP

“6-{[(1R)-1-(4-chlorophenyl)-7-fluoro-5-[1-hydroxy-1-(1-methyl-1H-pyrazol-4-yl)propyl]-3-oxo-1-[(3S)-oxolan-3-yloxy]-2,3-dihydro-1H-isoindol-2-yl]methyl}pyridine-3-carbonitrile [Example 359]”: in test [1] (at 0.10 μM), the “MDM2 % at concentration” value is given as 50%@0.10. Also, the IC50 in test [2] (Protocol B) was 3.9 µM. As for “6-{[(1R)-1-(4-chlorophenyl)-7-fluoro-5-[1-hydroxy-1-(1-methyl-1H-imidazol-4-yl)butyl]-3-oxo-1-[(3S)-oxolan-3-yloxy]-2,3-dihydro-1H-isoindol-2-yl]methyl}pyridine-3-carbonitrile [Example 472]”, in test [1], the “MDM2 % inhibition at 0.0030” value is 48%@0.0030. The IC50 in test [2] (Protocol B) turned out to be 0.39 µM.

For the substance “(3R)-3-(4-chlorophenyl)-2-[(3,5-difluoropyridin-2-yl)methyl]-4-fluoro-6-[1-hydroxy-1-(1-methyl-1H-pyrazol-4-yl)ethyl]-3-[(1-hydroxycyclopropyl)methoxy]-2,3-dihydro-1H-isoindol-1-one [Example 350]”, in test [1] (at 0.030 μM), the “MDM2 % at concentration” value is 54%@0.030. In addition, the IC50 in test [2] (Protocol B) stood at 0.51 µM. Consider “2-{[(1R)-1-(4-chlorophenyl)-7-fluoro-5-[(1S)-1-(4-fluorooxan-4-yl)-1-hydroxypropyl]-3-oxo-1-[cis-3-hydroxycyclobutoxy]-2,3-dihydro-1H-isoindol-2-yl]methyl}pyrimidine-5-carbonitrile [Example 506]”, for which the “MDM2 % inhibition at 0.030” value in test [1] (at 0.030 μM) came to 36%@0.030. Moreover, the IC50 in test [2] (Protocol B) amounted to 3.4 µM. On to “(3R)-6-[1-(1-acetylpiperidin-4-yl)-1-hydroxyethyl]-2-{[5-chloro-3-(hydroxymethyl)pyridin-2-yl]methyl}-3-(4-chlorophenyl)-4-fluoro-3-methoxy-2,3-dihydro-1H-isoindol-1-one [Example 424]”, for which the “MDM2 % inhibition at 0.0030” value in test [1] was determined as 45%@0.0030. In test [2] (Protocol B), the half-maximal inhibitory concentration (IC50) stood at 0.69 µM. Take “(3R)-2-[(5-chloro-1-oxo-1λ^5-pyridin-2-yl)methyl]-3-(4-chlorophenyl)-4-fluoro-6-[1-hydroxy-1-(1-methyl-1H-pyrazol-4-yl)ethyl]-3-{[1-(hydroxymethyl)cyclopropyl]methoxy}-2,3-dihydro-1H-isoindol-1-one [Example 407]”: the “MDM2 % at concentration” value in test [1] is given as 62%@0.0010. The half-inhibitory concentration (IC50) in test [2] (Protocol B) amounted to 0.58 µM. As for “2-{[(1R)-1-(4-chlorophenyl)-7-fluoro-5-[(1S)-1-(4-fluorooxan-4-yl)-1-hydroxypropyl]-3-oxo-1-[(3S)-oxolan-3-yloxy]-2,3-dihydro-1H-isoindol-2-yl]methyl}pyrimidine-5-carbonitrile [Example 508]”, the “MDM2 % inhibition at 0.10” value in test [1] (at 0.10 μM) stood at 17%@0.10. For the same substance, the “SJSA1 (Protocol B) % inhibition at 10” value in test [2] (Protocol B) was 11% at 10.

For the substance “(3R)-3-(4-chlorophenyl)-2-[(5-chloropyrimidin-2-yl)methyl]-4-fluoro-6-[1-hydroxy-1-(1-methyl-1H-imidazol-4-yl)propyl]-3-[(3S)-oxolan-3-yloxy]-2,3-dihydro-1H-isoindol-1-one [Example 474]”, in test [1] (at 0.030 μM), the “MDM2 % inhibition at 0.030” value is reported as 38%@0.030. For the same substance, the IC50 in test [2] (Protocol B) amounted to 1.3 µM. Consider “1-({[(1R)-1-(4-chlorophenyl)-2-[(5-chloropyrimidin-2-yl)methyl]-7-fluoro-5-[1-hydroxy-1-(1-methyl-1H-imidazol-4-yl)propyl]-3-oxo-2,3-dihydro-1H-isoindol-1-yl]oxy}methyl)cyclopropane-1-carboxamide [Example 485]”, for which the “MDM2 % inhibition at 0.10” value in test [1] (at 0.10 μM) is listed as 58%@0.10. In addition, the IC50 in test [2] (Protocol B) amounted to 4.2 µM. Take “(3R)-3-(4-chlorophenyl)-2-[(5-chloropyridin-2-yl)methyl]-4-fluoro-6-[1-hydroxy-1-(4-methyl-1H-imidazol-2-yl)ethyl]-3-[(1-hydroxycyclopropyl)methoxy]-2,3-dihydro-1H-isoindol-1-one [Example 332]”: in test [1] (at 0.030 μM), the “MDM2 % at concentration” value is given as 60%@0.030. Further, in test [2] (Protocol B), the IC50 amounted to 2.6 µM. “6-{[(1R)-1-(4-chlorophenyl)-7-fluoro-5-[1-(4-fluorooxan-4-yl)-1-hydroxypropyl]-1-(2-hydroxyethoxy)-3-oxo-2,3-dihydro-1H-isoindol-2-yl]methyl}pyridine-3-carbonitrile [Example 500]”: the “MDM2 % inhibition at 0.10” value in test [1] (at 0.10 μM) stood at 21%@0.10. In test [2] (Protocol B), the “SJSA1 (Protocol B) % inhibition at 10” value amounted to 16% at 10. As to “6-{[(1R)-1-(4-chlorophenyl)-7-fluoro-3-oxo-1-[(3S)-oxolan-3-yloxy]-5-[2,2,2-trifluoro-1-hydroxy-1-(1-methyl-1H-pyrazol-4-yl)ethyl]-2,3-dihydro-1H-isoindol-2-yl]methyl}pyridine-3-carbonitrile [Example 371]”, the “MDM2 % inhibition at 0.030” value in test [1] (at 0.030 μM) was determined as 43%@0.030. Also, the IC50 in test [2] (Protocol B) was 2.3 µM.

In the case of “(3R)-3-(4-Chlorophenyl)-2-[(5-chloropyrimidin-2-yl)methyl]-4-fluoro-6-[1-hydroxy-1-(piperidin-4-yl)propyl]-3-[(3S)-oxolan-3-yloxy]-2,3-dihydro-1H-isoindol-1-one [Example 448]”, the “MDM2 % inhibition at 0.0010” value in test [1] is listed as 84%@0.0010. For the same substance, the IC50 in test [2] (Protocol B) is 0.86 µM. Taken in the same sequence, the figures for “2-{[(1R)-1-(4-chlorophenyl)-7-fluoro-5-[1-hydroxy-1-(1-methyl-1H-imidazol-4-yl)propyl]-3-oxo-1-{[trans-3-hydroxycyclobutyl]methoxy}-2,3-dihydro-1H-isoindol-2-yl]methyl}pyrimidine-5-carbonitrile [Example 483]” were 58%@0.0010 and 0.2 µM. For “2-{[(1R)-1-(4-chlorophenyl)-7-fluoro-5-[1-(4-fluoropiperidin-4-yl)-1-hydroxypropyl]-3-oxo-1-[(3S)-oxolan-3-yloxy]-2,3-dihydro-1H-isoindol-2-yl]methyl}pyrimidine-5-carbonitrile [Example 547]”, the “MDM2 % inhibition at 0.0010” value in test [1] came out at 82%@0.0010. In addition, in test [2] (Protocol B), the 50% inhibitory concentration (IC50) was determined as 0.96 µM.

Consider “2-{[(1R)-1-(4-chlorophenyl)-7-fluoro-5-[(1R)-1-(4-fluorooxan-4-yl)-1-hydroxypropyl]-3-oxo-1-[(3S)-oxolan-3-yloxy]-2,3-dihydro-1H-isoindol-2-yl]methyl}pyrimidine-5-carbonitrile [Example 507]”, for which, in test [1], the “MDM2 % inhibition at 0.0030” value was 65%@0.0030. In addition, in test [2] (Protocol B), the IC50 is 0.02 µM. As for “(3R)-3-(4-chlorophenyl)-2-[(5-chloropyridin-2-yl)methyl]-4-fluoro-6-[1-hydroxy-1-(1-methylpiperidin-4-yl)ethyl]-3-{[1-(hydroxymethyl)cyclopropyl]methoxy}-2,3-dihydro-1H-isoindol-1-one [Example 555]”, the “MDM2 % inhibition at 0.0010” value in test [1] is given as 55%@0.0010. Also, the IC50 in test [2] (Protocol B) came out at 0.079 µM. Regarding “(3R)-3-(4-chlorophenyl)-2-[(5-chloropyrimidin-2-yl)methyl]-4-fluoro-6-[1-(4-fluoropiperidin-4-yl)-1-hydroxypropyl]-3-[(2R)-2-hydroxypropoxy]-2,3-dihydro-1H-isoindol-1-one [Example 543]”, the “MDM2 % inhibition at 0.0010” value in test [1] is 68%@0.0010. The half-inhibitory concentration (IC50) in test [2] (Protocol B) turned out to be 0.69 µM. “(3R)-3-(4-chlorophenyl)-2-[(5-chloropyridin-2-yl)methyl]-4-fluoro-3-[(1-{[(2-hydroxyethyl)amino]methyl}cyclopropyl)methoxy]-6-(2-hydroxypropan-2-yl)-2,3-dihydro-1H-isoindol-1-one [Example 326]”: the “MDM2 % at concentration” value in test [1] (at 0.030 μM) is on record as 50%@0.030. Besides, in test [2] (Protocol B), the IC50 is 2 µM. Turning to “(3R)-3-(4-chlorophenyl)-2-[(5-chloropyrimidin-2-yl)methyl]-4-fluoro-6-[1-(4-fluoropiperidin-4-yl)-1-hydroxypropyl]-3-[cis-3-hydroxycyclobutoxy]-2,3-dihydro-1H-isoindol-1-one [Example 542]”, in test [1] (at 0.010 μM), the “MDM2 % inhibition at 0.010” value came to 57%@0.010. Also, in test [2] (Protocol B), the IC50 is 3.1 µM. Consider “(3R)-3-(4-chlorophenyl)-2-[(5-chloropyrimidin-2-yl)methyl]-4-fluoro-3-[(3-fluorooxetan-3-yl)methoxy]-6-[2-hydroxy-1-(piperazin-1-yl)butan-2-yl]-2,3-dihydro-1H-isoindol-1-one [Example 538]”, for which the “MDM2 % inhibition at 0.030” value in test [1] (at 0.030 μM) turned out to be 44%@0.030. In addition, the IC50 in test [2] (Protocol B) is 2.2 µM.

As to “1-({[(1R)-1-(4-chlorophenyl)-2-[(5-chloropyrimidin-2-yl)methyl]-7-fluoro-5-[2-hydroxy-1-(piperazin-1-yl)butan-2-yl]-3-oxo-2,3-dihydro-1H-isoindol-1-yl]oxy}methyl)cyclopropane-1-carbonitrile [Example 537]”, in test [2] (Protocol B), the IC50 was 0.76 µM. “5-chloro-2-{[(1R)-1-(4-chlorophenyl)-7-fluoro-5-[(1R)-1-(4-fluorooxan-4-yl)-1-hydroxypropyl]-1-methoxy-3-oxo-2,3-dihydro-1H-isoindol-2-yl]methyl}pyridine-3-carboxylic acid (tris(hydroxymethyl)aminomethane salt) [Example 514]”: in test [2] (Protocol B), the IC50 was found to be 0.64 µM. As for “(3S)-3-(4-chlorophenyl)-3-[(1R)-1-(4-chlorophenyl)-5-(1-cyclobutyl-1-hydroxyethyl)-7-fluoro-1-methoxy-3-oxo-2,3-dihydro-1H-isoindol-2-yl]propanoic acid [Example 103]”, in test [2] (SJSA-1, CellTiter-Glo, 72 hrs), the IC50 worked out at 0.8 µM. For the substance “1-({[(1R)-1-(4-chlorophenyl)-7-fluoro-2-[(5-fluoropyridin-2-yl)methyl]-5-[1-hydroxy-1-(1-methyl-1H-pyrazol-4-yl)ethyl]-3-oxo-2,3-dihydro-1H-isoindol-1-yl]oxy}methyl)cyclopropane-1-carboxamide [Example 209]”, the IC50 in test [2] (Protocol B) worked out at 0.45 µM.

Take “(3R)-3-(4-chlorophenyl)-2-[(5-chloropyridin-2-yl)methyl]-4-fluoro-6-[1-hydroxy-1-(1-methyl-1H-pyrazol-4-yl)ethyl]-3-(2-hydroxyethoxy)-2,3-dihydro-1H-isoindol-1-one [Example 213]”: the IC50 in test [2] (Protocol B) is 0.25 µM.

For orientation: IC50 means the concentration needed to halve the response being measured.
